This is an account of results in publication PMC10249623 (Environmental Science & Technology, 2023).

Where two headings read alike, the source gives them in different places. Marks after values point to notes of the source that are not given here.

A short description of series [1]: Hexadecane/water partition coefficient, batch partition method. It counts as physicochemical. The following applies: for log KHxd/w batch partition method mean: 25 °C, n = 5; for log KHxd/w with pure water lower than with 1 mM HCl solution by: preliminary experiments, pure water vs 1 mM HCl.
Series [2] in a line: Air/water partition coefficient via hexadecane/air/water thermodynamic cycle (eq 1). In kind it is physicochemical. The following applies: for log Kaw eq 1: 25 °C, KHxd/w divided by KHxd/air.
Protocol: The objectives of this study are to obtain new experimental data for Kaw at 25 °C for a series of neutral PFAS and to evaluate Kaw prediction models. […] To circumvent the difficulty associated with direct measurement of Kaw, we determined Kaw indirectly by measuring the hexadecane/water partition coefficient (KHxd/w) and applying the hexadecane/air/water thermodynamic cycle: [drawing 1] 1 where KHxd/air is the hexadecane/air partition coefficient. KHxd/w can be measured more reliably than Kaw because gas phase quantification is not needed and hexadecane has a larger solubilization capacity than water, which minimizes the problem of third-phase sorption. […] The new Kaw data for 21 PFAS were compared to predictions by four models that are often used in environmental risk assessments.
Series [3] is described as follows: Hexadecane/water partition coefficient, shared-headspace method. In kind it is physicochemical. The following applies: for log KHxd/w shared-headspace method mean: 25 °C, n = 5. On the procedure:
The method concept is based on the existing publications that used a shared-headspace system for salting-out experiments[26] and ecotoxicity tests.[27],[28] Hexadecane solution of PFAS was placed in a 350 μL insert hosted by a 1.5 mL GC vial. This small vial was put in a 10 mL headspace vial that contained 1 mL of water. The 10 mL vial was closed with a PTFE-lined septum and gently shaken at 25 °C for 24 h. During this time, the compound dissolved in hexadecane was partially transferred to water via the headspace until a three-phase partition equilibrium was reached between hexadecane, air, and water. Water was then sampled and immediately extracted with n-hexane for GC/MS analysis. The hexadecane phase was also analyzed, which confirmed 85–100% mass conservation (Table S3). KHxd/w was obtained from the measured concentration in water, as in the batch partition method. […] The shared-headspace method is useful for compounds with sufficient volatility (relatively high Kaw, low KHxd/air) and hydrophobicity (relatively high KHxd/w), as these properties ensure an efficient transfer from hexadecane to water via air and negligible concentration depletion in hexadecane. Therefore, nine PFAS that meet this requirement were measured by this method, while all eight sulfonamides and four short-chain FTOHs were not.
SI-1 Extended descriptions for experimental methods
Pure PFAS were dissolved in hexadecane either directly or using acetone as carrier solvent. Up to three PFAS were mixed in hexadecane and investigated simultaneously. The PFAS concentration in hexadecane was 0.1–2000 mg/L, depending on the expected KHxd/w and the sensitivity of the quantification method. The acetone content in hexadecane was up to 0.3% (v/v). This acetone should have largely partitioned into water during the partition experiment, where the final concentration in water was estimated to be < 0.3% (v/v). We assumed that this concentration of acetone in water does not have a significant influence on partition coefficients of PFAS. […]
The water phase was analyzed directly by liquid chromatography/mass spectrometry (LC/MS) (for PFBSA, PFHxSA, MeFBSA, MeFHxSA, MeFBSE), diluted with acetonitrile and analyzed with LC/MS (for PFOSA EtFHxSA, EtFHxSE), or liquid-liquid-extracted with n-hexane and analyzed by gas chromatography/mass spectrometry (GC/MS) (for all others). The hexadecane phase was back-extracted with water (for PFBSA, PFHxSA) or with 0.1 mM NaOH water (for PFOSA) and measured by LC/MS, or it was diluted with n-hexane by a factor of 100–500 and analyzed by GC/MS (for all others). […]
The 95% confidence interval (CI) of the mean (x) was calculated with the formula, x ± 2.78 SD/√5, where SD is the standard deviation, based on the t-distribution and n = 5. […]
PFHxSA, PFOSA, MeFBSA, MeFHxSA, and EtFHxSA were performed using 1 mM HCl aqueous solution […]
A shared headspace method was used to measure KHxd/w for nine PFAS. In this method, hexadecane solution of PFAS was prepared as described above and 300 μL was placed in a 350-μL glass insert

The nature of series [4]: Direct measurement of Kaw using the standard VPR-HS method. It counts as physicochemical. The following applies: measured by the VPR-HS method in this study, 25 °C. From the text:
Kaw values for five PFAS were directly measured using a standard VPR-HS method, as in the literature.[7],[8] The experimental procedure is similar to what has been described previously for KHxd/air([21]) and is summarized in SI-3.

Series [5] in a line: Hexadecane/water partition coefficient, modified VPR-HS method. The following applies: 25 °C. In kind it is physicochemical.
Protocol: KHxd/w was also measured with a modified version of the VPR-HS method; 20 mL headspace vials were filled with water and hexadecane with different volume ratios. The total liquid volume was always 20 mL. All vials received the same amount of the target compound. After equilibration at 25 °C, the headspace was injected into the GC/MS. […] Here, response linearity as well as no significant mass of the compound in the headspace and any other interface (e.g., vial wall, hexadecane/water interface, septum) was assumed. As α, m, and Vtot (=20 mL) are constant for a given compound, KHxd/w can be fitted on the data of PA vs VHxd. Theoretically, KHxd/w could be determined with a minimum of two VHxd conditions (e.g., 0 and 20 mL), whereas at least four VHxd values were prepared in this work.
For series [6] the following is noted: cited from earlier work.
[7] abbreviates: 1 mM HCl was used instead of pure water.

In the case of `CNS(=O)(=O)C(F)(F)C(F)(F)C(F)(F)C(F)(F)F` [MeFBSA, N-methyl perfluorobutane sulfonamide], the “log KHxd/w batch partition method mean” value in series [1] (setting [7]) is 0.82 ^c. In addition, in series [2], the “log Kaw eq 1” value is “–2.85”.

As for `FC(F)C(F)(F)C(F)(F)C(F)(F)C(F)(F)C(F)(F)CI` [6:1 FTI-7H, 1H,1H,7H-perfluoroheptyl iodide], the “log KHxd/w shared-headspace method mean” value in series [3] is reported as 4.62. For the same molecule, in series [3] (difference to 6:1 FTI), the “log KHxd/w lower than that of 6:1 FTI by” value is on record as 1.0 log unit. In addition, the “log Kaw eq 1” value in series [2] turned out to be 0.70. Also, the “log Kaw lower than that of 6:1 FTI by” value in series [2] (difference to 6:1 FTI) came out at 1.6 log units.

On to `OCC(F)(F)C(F)(F)C(F)(F)F` [3:1 FTOH, 1H,1H-perfluorobutan-1-ol], for which, in series [4], the “log Kaw VPR-HS” value is recorded as “–2.03 ^d”.

`CCN(CCO)S(=O)(=O)C(F)(F)C(F)(F)C(F)(F)C(F)(F)C(F)(F)C(F)(F)F` [EtFHxSE, N-ethyl perfluorohexane sulfonamidoethanol]: in series [1] (pure water), the “log KHxd/w batch partition method mean” value was 2.76. Moreover, the “log Kaw eq 1” value in series [2] is reported as “–3.02”.

Turning to `OCCCCC(F)(F)C(F)(F)C(F)(F)C(F)(F)F` [4:4 FTOH, 4-(perfluorobutyl)butan-1-ol], the “log KHxd/w batch partition method mean” value in series [1] (pure water) was 1.60. Also, the “log KHxd/w modified VPR-HS method mean” value in series [5] came out at 1.43. In addition, the “log Kaw eq 1” value in series [2] is on record as “–1.97”. Further, the “log Kaw VPR-HS” value in series [4] is reported as “–1.28 ^d”.

On to `OCCC(F)(F)C(F)(F)C(F)(F)C(F)(F)C(F)(F)C(F)(F)C(F)(F)C(F)(F)F` [8:2 FTOH, 1H,1H,2H,2H-perfluorodecan-1-ol], for which the “log KHxd/w shared-headspace method mean” value in series [3] was determined as 3.75. Moreover, the “log Kaw eq 1” value in series [2] is on record as 0.11. The “log Kaw VPR-HS or VP/S” value is reported as 0.96 in series [6] (23 or 24 °C ref 12), “–1.82” in series [6] (literature value ref 7), 0.58 in series [6] (literature value ref 8) and 0.31 in series [6] (literature value ref 9).

Take `OCCC(F)(F)C(F)(F)C(F)(F)C(F)(F)C(F)(F)C(F)(F)F` [6:2 FTOH, 1H,1H,2H,2H-perfluorooctan-1-ol]: the “log KHxd/w batch partition method mean” value in series [1] (pure water) came to 2.50. For the same molecule, in series [3], the “log KHxd/w shared-headspace method mean” value is 2.51. Further, in series [2], the “log Kaw eq 1” value is reported as “–0.64”. Further, the “log Kaw VPR-HS or VP/S” value is on record as −0.44 in series [6] (23 or 24 °C ref 12), “–1.47” in series [6] (literature value ref 7), −0.56 in series [6] (literature value ref 8) and 0.37 in series [6] (literature value ref 9).

With `NS(=O)(=O)C(F)(F)C(F)(F)C(F)(F)C(F)(F)C(F)(F)C(F)(F)C(F)(F)C(F)(F)F` [PFOSA, perfluorooctane sulfonamide], the “log KHxd/w batch partition method mean” value in series [1] (setting [7]) is listed as 1.80 ^c. Also, the “log Kaw eq 1” value in series [2] was “–3.04”.

As for `C=CC(=O)OCCC(F)(F)C(F)(F)C(F)(F)C(F)(F)C(F)(F)C(F)(F)F` [6:2 FTAC, 1H,1H,2H,2H-perfluorooctyl acrylate], in series [3], the “log KHxd/w shared-headspace method mean” value is recorded as 5.43. Moreover, in series [2], the “log Kaw eq 1” value is 1.27.

As to `OCCC(F)(F)C(F)(F)C(F)(F)C(F)(F)F` [4:2 FTOH, 1H,1H,2H,2H-perfluorohexan-1-ol], in series [1] (pure water), the “log KHxd/w batch partition method mean” value was 0.79. Also, the “log KHxd/w modified VPR-HS method mean” value in series [5] was 0.75. The “log Kaw eq 1” value in series [2] is “–1.57”. In addition, the “log Kaw VPR-HS” value in series [4] is given as “–1.56”. Also, the “log Kaw VPR-HS or VP/S” value was −1.52 in series [6] (23 or 24 °C ref 12), −1.30 in series [6] (literature value ref 7), −1.63 in series [6] (literature value ref 8) and −1.21 in series [6] (literature value ref 9).

As to `CC(O)C(F)(F)C(F)(F)C(F)(F)C(F)(F)C(F)(F)F` (stereo not shown) [5:2s FTOH, 1H,1H,1H,2H-perfluoroheptan-2-ol], the “log KHxd/w batch partition method mean” value in series [1] (pure water) was 2.00. Besides, in series [3], the “log KHxd/w shared-headspace method mean” value is recorded as 2.04. Further, in series [5], the “log KHxd/w modified VPR-HS method mean” value came out at 1.55. Further, in series [2], the “log Kaw eq 1” value is “–0.15”.

As for `FC(F)(F)C(F)(F)C(F)(F)C(F)(F)CCI` [4:2 FTI, 1H,1H,2H,2H-perfluorohexyl iodide], the “log KHxd/w shared-headspace method mean” value in series [3] is 4.93. The “log Kaw eq 1” value in series [2] amounted to 1.60.

For `OCC(F)(F)C(F)(F)C(F)(F)C(F)(F)C(F)(F)C(F)(F)C(F)(F)F` [7:1 FTOH, 1H,1H-perfluorooctan-1-ol], the “log KHxd/w shared-headspace method mean” value in series [3] was 2.70. Further, the “log Kaw eq 1” value in series [2] is “–0.26”.

On to `CN(CCO)S(=O)(=O)C(F)(F)C(F)(F)C(F)(F)C(F)(F)F` [MeFBSE, N-methyl perfluorobutane sulfonamidoethanol], for which the “log KHxd/w batch partition method mean” value in series [1] (pure water) is listed as 0.49. Moreover, the “log Kaw eq 1” value in series [2] is “–4.35”.

With `C=C(C)C(=O)OCCC(F)(F)C(F)(F)C(F)(F)C(F)(F)F` [4:2 FTMAC, 1H,1H,2H,2H-perfluorohexyl methacrylate], in series [3], the “log KHxd/w shared-headspace method mean” value was 4.65. In addition, the “log Kaw eq 1” value in series [2] is recorded as 0.62. In series [4], the “log Kaw VPR-HS” value is given as “–0.14 ^d”.

As to `CCNS(=O)(=O)C(F)(F)C(F)(F)C(F)(F)C(F)(F)C(F)(F)C(F)(F)F` [EtFHxSA, N-ethyl perfluorohexane sulfonamide], the “log KHxd/w batch partition method mean” value in series [1] (setting [7]) is 2.95 ^c. Also, the “log Kaw eq 1” value in series [2] is reported as “–1.58”.

`OCCCC(F)(F)C(F)(F)C(F)(F)F` [3:3 FTOH, 3-(perfluoropropyl)propan-1-ol]: the “log KHxd/w batch partition method mean” value in series [1] (pure water) was 0.52. The “log KHxd/w modified VPR-HS method mean” value in series [5] was found to be 0.32. Besides, the “log Kaw eq 1” value in series [2] is “–2.17”. In series [4], the “log Kaw VPR-HS” value was “–2.04 ^d”.

For the molecule `FC(F)(F)C(F)(F)C(F)(F)C(F)(F)C(F)(F)C(F)(F)CI` [6:1 FTI, 1H,1H-perfluoroheptyl iodide], in series [3], the “log KHxd/w shared-headspace method mean” value stood at 5.66. The “log Kaw eq 1” value in series [2] amounted to 2.28.

As to `NS(=O)(=O)C(F)(F)C(F)(F)C(F)(F)C(F)(F)C(F)(F)C(F)(F)F` [PFHxSA, perfluorohexane sulfonamide], the “log KHxd/w batch partition method mean” value in series [1] (setting [7]) is 0.39 ^c. Moreover, the “log KHxd/w with pure water lower than with 1 mM HCl solution by” value in series [1] is given as 0.5–0.9 log units. In series [2], the “log Kaw eq 1” value is reported as “–3.94”.

On to `NS(=O)(=O)C(F)(F)C(F)(F)C(F)(F)C(F)(F)F` [PFBSA, perfluorobutane sulfonamide], for which the “log KHxd/w batch partition method mean” value in series [1] (setting [7]) is recorded as “–1.15 ^c”. The “log KHxd/w with pure water lower than with 1 mM HCl solution by” value in series [1] is on record as 0.5–0.9 log units. In addition, the “log Kaw eq 1” value in series [2] is “–4.89”.

For `CNS(=O)(=O)C(F)(F)C(F)(F)C(F)(F)C(F)(F)C(F)(F)C(F)(F)F` [MeFHxSA, N-methyl perfluorohexane sulfonamide], the “log KHxd/w batch partition method mean” value in series [1] (setting [7]) is reported as 2.25 ^c. Moreover, the “log Kaw eq 1” value in series [2] is listed as “–2.01”.
